Data from US20180038871A1, “DIAGNOSTIC BIOMARKER TO IDENTIFY WOMEN AT RISK FOR PRETERM DELIVERY” (CEDARS-SINAI MEDICAL CENTER, priority 2009, published 2018).
“Also recorded” adds a separate entry of the source.

Tested on: Peripheral blood mononuclear cells (PBMC)
Assay: LPS-induced cytokine expression profile in PBMC with or without cortisol pretreatment (Bioplex)
Type: cell-based, human
Set-up: key to Cortisol Effect on IFN-g secretion level / LPS Effect on IFN-g secretion level / Cortisol Effect on TNF-a secretion level / Cortisol Effect on GM-CSF secretion level / LPS Effect on GM-CSF secretion level / Cortisol Effect on IL-2 secretion level / LPS Effect on IL-2 secretion level / Cortisol Effect on IL-4 secretion level / Cortisol Effect on IL-10 secretion level: n/c = No Change
Experimental: Peripheral blood mononuclear cells (PBMC) from non-pregnant (at least 5-6 years post-partum) women with history of preterm or full term delivery, in addition to the microbial component lipopolysaccharide (LPS)-induced cytokine expression profile were examined. PBMC were separated from whole blood using Ficoll gradient. The cells were counted and equal numbers of cells were plated in 24 well plates. PBMC were treated with cortisol (50 or 300 ug/ml) or media for 1 hour prior to stimulation with LPS (0, 1, or 100 ug/ml) for 24 hours.
The PBMC were lysed and the supernatant was examined for inflammatory and anti-inflammatory cytokine expression by using Bioplex technology (Bio-rad).
In this study two patients were preterm and four were full term. There were 9 samples per patient (3×3 design) and all samples from each patient were analyzed twice for cytokine concentrations with the exception of one full term subject who only had one analysis of each sample. As a result there are a total of 99 observations for each cytokine measured. The assay simultaneously measured concentrations of 11 inflammatory markers: IL-1ra (IL1-receptor antagonist), IL-2, IL-4, IL-5, IL-8, IL-10, IL-12, IL-13, GM-CSF, IFN-g, and TNF-a.
All raw data was tested via the Kolmogorov-Smirnov test to determine if the data followed a normal distribution. Log-transformations were performed for all data found to have a non-normal distribution prior to further statistical analysis. For each cytokine, a mixed effects model was used to examine all data for significant effects with the outcome variable as the cytokine concentration; the fixed predictor variables as LPS concentration, cortisol concentration, and delivery status (pre- or full-term); and the random effect due to the replicate data points. To test the interaction of the three fixed predictor variables on cytokine concentration, both first and second level interactions ware added to each cytokine model. Post-hoc testing was performed using a Student's t-test.
Using the same mixed model regression, estimated group means and standard errors were calculated. Differences between preterm and full-term pregnancies were considered significant where p <0.10.

[1] = 0 or 300 ug/ml cortisol pretreatment 1 hour, 0 or 1 ug/ml LPS 24 hours, mixed modeling
[2] = 0 or 300 ug/ml cortisol pretreatment 1 hour, 0 or 1 ug/ml LPS 24 hours, mixed modeling, listed as cortisol
[3] = all 99 observations, 300 ug/ml vs 50 ug/ml cortisol
[4] = 0 or 1 ug/ml LPS 24 hours, 0 or 300 ug/ml cortisol pretreatment, mixed modeling

C[C@]12CCC(=O)C=C1CC[C@@H]1[C@@H]2[C@@H](O)C[C@@]2(C)[C@H]1CC[C@]2(O)C(=O)CO [Cortisol, cortisol]
Cortisol Effect on GM-CSF secretion level [1]: n/c, p = .51 | Cortisol Effect on IFN-g secretion level [1]: n/c, p = .10 | Cortisol Effect on IL-1ra secretion level [1]: decrease, p = .03 | Cortisol Effect on IL-2 secretion level [1]: n/c, p = .80 | Cortisol Effect on IL-4 secretion level [1]: n/c, p = .26 | Cortisol Effect on IL-10 secretion level [1]: n/c, p = .12 | Cortisol Effect on IL-13 secretion level [1]: decrease, p = .01 | Cortisol Effect on TNF-a secretion level [1]: n/c, p = .41 | Cortisol Effect on IL-1ra secretion level [2]: suppress secretion | Cortisol Effect on IL-13 secretion level [2]: suppress secretion | Suppression of IL-1ra level, 300 ug/ml cortisol compared with 50 ug/ml [3]: more significant effect to suppress cytokine levels | Suppression of IL-10 level, 300 ug/ml cortisol compared with 50 ug/ml [3]: more significant effect to suppress cytokine levels | Suppression of IL-13 level, 300 ug/ml cortisol compared with 50 ug/ml [3]: more significant effect to suppress cytokine levels

lipopolysaccharide [LPS]
LPS Effect on GM-CSF secretion level [4]: n/c, p = .19 | LPS Effect on IFN-g secretion level [4]: n/c, p = .17 | LPS Effect on IL-1ra secretion level [4]: increased secretion; also recorded: increase, p = .09 | LPS Effect on IL-2 secretion level [4]: n/c, p = .50 | LPS Effect on IL-4 secretion level [4]: increased secretion; also recorded: increase, p = .07 | LPS Effect on IL-10 secretion level [4]: increased secretion; also recorded: increase, p = .01 | LPS Effect on IL-13 secretion level [4]: increased secretion; also recorded: increase, p = .04 | LPS Effect on TNF-a secretion level [4]: increased secretion; also recorded: increase, p = .04 | Difference between the effects of 1 ug/ml and 100 ug/ml LPS, all cytokines measured (all 99 observations, 1 ug/ml vs 100 ug/ml LPS): no significant difference
